In US5004747A, “Isoquinolinones” (May & Baker Limited, priority 1988, dated 1991) one finds inhibition data, which are given here for five compounds.

In general, inhibition refers to how much of the control response was suppressed. High values mean a strong effect, low ones a weak effect.

For the assay, the target named is T1, rat hepatic microsomal HMG CoA reductase (Rattus norvegicus, UniProt P51639).
T1 construct: rat hepatic microsomal HMG CoA reductase; from tissue; host or cells: rat liver microsomes
T1 sequence (P51639 1-887): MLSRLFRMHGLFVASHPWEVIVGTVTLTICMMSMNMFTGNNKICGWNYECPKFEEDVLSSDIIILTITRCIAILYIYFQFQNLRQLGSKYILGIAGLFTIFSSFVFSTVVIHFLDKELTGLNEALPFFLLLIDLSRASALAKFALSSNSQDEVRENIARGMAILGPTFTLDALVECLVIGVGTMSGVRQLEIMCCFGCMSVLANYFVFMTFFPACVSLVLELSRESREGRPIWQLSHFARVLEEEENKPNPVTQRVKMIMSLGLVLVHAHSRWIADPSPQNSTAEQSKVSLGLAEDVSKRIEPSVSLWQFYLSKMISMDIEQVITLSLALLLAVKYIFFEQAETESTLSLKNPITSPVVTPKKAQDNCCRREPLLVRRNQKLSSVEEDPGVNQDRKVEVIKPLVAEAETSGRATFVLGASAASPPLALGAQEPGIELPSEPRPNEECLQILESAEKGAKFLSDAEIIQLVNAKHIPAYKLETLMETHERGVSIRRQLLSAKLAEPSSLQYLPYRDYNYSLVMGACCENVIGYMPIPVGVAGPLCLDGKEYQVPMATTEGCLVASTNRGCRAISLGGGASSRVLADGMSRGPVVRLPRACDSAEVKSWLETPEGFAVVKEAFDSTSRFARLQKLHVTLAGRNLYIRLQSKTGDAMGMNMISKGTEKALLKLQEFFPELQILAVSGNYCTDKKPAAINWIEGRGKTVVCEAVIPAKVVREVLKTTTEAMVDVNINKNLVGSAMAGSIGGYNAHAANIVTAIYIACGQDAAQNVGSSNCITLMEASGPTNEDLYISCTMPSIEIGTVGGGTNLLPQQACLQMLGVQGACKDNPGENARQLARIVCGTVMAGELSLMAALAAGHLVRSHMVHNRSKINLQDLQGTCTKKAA
Description: inhibition of rat hepatic microsomal HMG CoA reductase activity in vitro (Table I). In kind it is biochemical. As to conditions: for inhibition at 0.082 µg/mL: 0.082 micrograms/ml; for inhibition at 0.25 µg/mL: 0.25 micrograms/ml; for inhibition at 0.74 µg/mL: 0.74 micrograms/ml; for inhibition at 2.22 µg/mL: 2.22 micrograms/ml; for inhibition at 6.66 µg/mL: 6.66 micrograms/ml; for inhibition at 20 µg/mL: 20.0 micrograms/ml. The source says: In the table the concentrations of the test compounds are expressed in micrograms/ml.

For the compound `Cc1cc(-n2c(/C=C/[C@@H]3C[C@@H](O)CC(=O)O3)c(C(C)C)c3ccccc3c2=O)ccc1F` [P, (4R,6S)-(E)-6-(2-(2-(4-fluoro-3-methylphenyl)-4-isopropyl-1-oxo-1,2-dihydroisoquinolin-3-yl)ethen-1-yl)-4-hydroxy-3,4,5,6-tetrahydro-2H-pyran-2-one], the inhibition at 0.082 µg/mL is 27%, 0.25 µg/mL produced 39% inhibition, at 0.74 µg/mL the inhibition was 63% and testing at 2.22 µg/mL gave an inhibition of 81%. The compound further gave an inhibition at 6.66 µg/mL of 90% and an inhibition at 20 µg/mL of 90%.
Compound `CC(C)c1c(/C=C/[C@@H]2C[C@@H](O)CC(=O)O2)n(-c2ccc(Cl)cc2)c(=O)c2ccccc12` [R, (4R,6S)-(E)-6-(2-(2-(4-chlorophenyl)-4-isopropyl-1-oxo-1,2-dihydroisoquinolin-3-yl)ethen-1-yl)-4-hydroxy-3,4,5,6-tetrahydro-2H-pyran-2-one] yielded an inhibition at 0.082 µg/mL of 21%, an inhibition at 0.25 µg/mL of 35%, an inhibition at 0.74 µg/mL of 56% and an inhibition at 2.22 µg/mL of 78%. The same compound returned an inhibition at 6.66 µg/mL of 91% and an inhibition at 20 µg/mL of 97%.
`Cc1c(/C=C/[C@@H]2C[C@@H](O)CC(=O)O2)n(-c2ccc(F)cc2)c(=O)c2ccccc12` [V, (4R,6S)-(E)-6-(2-(2-(4-fluorophenyl)-4-methyl-1-oxo-1,2-dihydroisoquinolin-3-yl)ethen-1-yl)-4-hydroxy-3,4,5,6-tetrahydro-2H-pyran-2-one] had an inhibition at 0.74 µg/mL of 10%, an inhibition at 2.22 µg/mL of 40%, an inhibition at 6.66 µg/mL of 67% and an inhibition at 20 µg/mL of 85%.
In the case of `O=C1C[C@H](O)C[C@@H](/C=C/c2c(-c3ccc(F)cc3)c3ccccc3c(=O)n2CC2CC2)O1` [X, (4R,6S)-(E)-6-(2-(2-cyclopropylmethyl-4-(4-fluorophenyl)-1-oxo-1,2-dihydroisoquinolin-3-yl)ethen-1-yl)-4-hydroxy-3,4,5,6-tetrahydro-2H-pyran-2-one], at 0.082 µg/mL the inhibition was 16%, testing at 0.25 µg/mL gave an inhibition of 35%, 0.74 µg/mL produced 61% inhibition and testing at 2.22 µg/mL gave an inhibition of 83%. This compound also registered an inhibition at 6.66 µg/mL of 92% and an inhibition at 20 µg/mL of 96%.
`CC(C)c1c(/C=C/[C@@H]2C[C@@H](O)CC(=O)O2)n(C2CCCCC2)c(=O)c2ccccc12` [Z, (4R,6S)-(E)-6-(2-(2-cyclohexyl-4-isopropyl-1-oxo-1,2-dihydroisoquinolin-3-yl)ethen-1-yl)-4-hydroxy-3,4,5,6-tetrahydro-2H-pyran-2-one] returned an inhibition at 0.082 µg/mL of 50%, an inhibition at 0.25 µg/mL of 77%, an inhibition at 0.74 µg/mL of 88% and an inhibition at 2.22 µg/mL of 96%. This compound also gave an inhibition at 6.66 µg/mL of 99%.
